Substitutions are numbered along the chain they refer to.
How the values were obtained:
GCH1 [1] = molecular target: T1, GCH1 (Homo sapiens, UniProt P30793); assay: protein-detected NMR titration (1H,13C HMQC), wild-type GCH1; assay type: binding
T1 construct: The hGCH1 (42-250, N-terminal 6xHis Tag and TEV cleavage site); 6xHis (N); TEV cleavage site (N); made in house; host or cells: E. coli BL21(DE3)
T1 sequence (P30793 42-250): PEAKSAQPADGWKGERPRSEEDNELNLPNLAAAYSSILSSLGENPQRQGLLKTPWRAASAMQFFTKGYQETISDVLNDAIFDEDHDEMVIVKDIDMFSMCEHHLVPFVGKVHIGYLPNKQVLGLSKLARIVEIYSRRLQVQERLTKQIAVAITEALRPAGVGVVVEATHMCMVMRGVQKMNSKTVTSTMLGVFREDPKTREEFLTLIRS
Experimental: (§1) Finally, the F122A mutant was generated and characterized to check whether the structurally observed, F122-dependent closure of the active site plays a key role in GCH1 function. […] The fitted dissociation constant KD of GCH1 for the nonhydrolyzable GTP analog 7-deaza-GTP was determined by protein-detected NMR titrations. […] Therefore, the missing enzyme activity of the F122 mutant cannot be explained by reduced affinity to the substrate and must have other underlying causes.
(§2) Perdeuterated protein with selectively labeled protonated and ^13C-labeled alanine, isoleucine, leucine, and valine methyl groups {Ala^β-[^13CH3]; Ile^δ1-[^13CH3]; Leu^δ,Val^γ-[^12CD3/^13CH3]} was expressed as described in the literature ([64]). […] All spectra were recorded on a Bruker Avance III 800 MHz NMR spectrometer equipped with a cryogenic triple-resonance probe at 298 K. Fifty micromolars perdeuterated GCH1 monomer with selectively labeled methyl groups was dissolved in 1× PBS in D2O. The ^1H,^13C-HMQC spectra of the protein were recorded with increasing concentration of the nonhydrolyzable GTP analog 7-deaza-GTP up to a final concentration of 3.5 mM. Spectra were processed with Bruker Topspin 3.5 and analyzed using CcpNmr ([65]) analysis version 2. Chemical shift perturbation (CSP) was calculated using Eq. 1 and the binding curve was fitted using Eq. 2. […]

GCH1 F122A mutant = molecular target: T2, GCH1 F122A mutant (Homo sapiens, UniProt P30793, F122A); assay: protein-detected NMR titration (1H,13C HMQC), F122A mutant; assay type: binding
T2 construct: The hGCH1 (42-250, N-terminal 6xHis Tag and TEV cleavage site); 6xHis (N); TEV cleavage site (N); made in house; host or cells: E. coli BL21(DE3)
T2 sequence (P30793 42-250 F122A): T1 sequence (P30793 42-250) with F81A
Experimental: as §1, §2

GCH1 [2] = molecular target: T1, GCH1; assay: STD-NMR titration of 7-deaza-GTP to GCH1 (initial slopes of build-up curves); assay type: binding
From the text: To shed more light onto the mechanism of BH4-induced inhibition of GCH1, we used saturation transfer difference (STD) NMR spectroscopy to study binding of the substrate analog 7-deaza-GTP to GCH1. STD-NMR can be used to determine the KD of ligands (feasible in the range between 10^−2 and 10^−6 M) and allows the making of qualitative statements about the change of ligand binding kinetics ([28]–[31]). STD-NMR experiments were based on a titration of 7-deaza-GTP to GCH1 in the presence or absence of BH4. We measured a series of STD build-up curves (i.e., STD effects at a constant ligand concentration but increasing saturation times) at each 7-deaza-GTP concentration for the protons H7 and H1′ of the substrate analog. From the concentration dependence of the initial build-up slopes, the dissociation constant as well as the maximum STD amplification for the monitored proton signal can be derived (Fig. 6 A and B).
Fig. 6. KD determination using initial slopes from STD-NMR build-up curves. (A) For each ligand concentration, a set of measurements was recorded applying different saturation times (tsat). To obtain STD-AFmax values and the saturation rate constants ksat from STD-NMR build-up curves, experimental STD-AF values were fit to a rising exponential: STD-AF = STD-AFmax (1−exp (−ksat tsat)). From the fitting parameters, initial build-up slopes (tsat = 0) were calculated: STD-AF0 = STD-AFmax ksat. These STD-AF0 values were plotted against the ligand concentration, yielding a binding isotherm from which KD can be derived by fitting the Langmuir binding model: STD-AF0 = Amax/(1+(KD/c)). Amax is a scaling factor representing the maximum STD amplification. Two different 7-deaza-GTP protons (H1′ and H7) were monitored in these experiments. (C) Assignment of relevant protons on structural formula of 7-deaza-GTP. TEXT PRINTED IN THE PICTURE: (B) H1': KD: 52 (5mM BH4); Amax: 732 (5mM BH4); KD: 326 (no BH4); Amax: 177 (no BH4) | (B) H7: KD: 157 (5mM BH4); Amax: 729 (5mM BH4); KD: 977 (no BH4); Amax: 400 (no BH4) DOUBTS OF THE COPYIST ABOUT THIS PICTURE: Panel B: the row labels H1' and H7 are monitored protons of one ligand (printed in panel A as 7da-GTP / 7-Deaza-GTP), not separate compounds; they are used as labels as printed / Panel B: no unit is printed for KD or Amax in the table
All NMR experiments were performed at 25 °C on a Bruker HD 600-MHz spectrometer equipped with a cryogenic QCI probe head. Deuterium oxide (D2O) NMR buffer solution containing 40 mM of a NaH2PO4 and Na2HPO4 mixture with 150 mM sodium chloride (NaCl) was adjusted to a pD of 7.4 (corrected). Suppression of broad protein resonances was achieved by a T1ρ filter ([60]), formed by a 50-ms spin lock pulse. STD-NMR spectra were acquired with WATERGATE water suppression using W5 hard pulse trains ([61]). Difference spectrum ligand signal intensities were divided by corresponding off-resonance spectrum signal intensities, resulting in relative STD intensity values. Multiplication by ligand excess factor yielded STD amplification factor (STD-AF) values ([28]). For selective protein signal saturation, a cascade of Gaussian-shaped pulses was applied. Series of measurements with different total saturation times (tsat) covering a range between 1.2 and 7.2 s were recorded for extraction of initial slopes from STD-AF build-up plots. An additional relaxation delay varying from 2.8 s to 0.4 s was inserted before the saturation cascade to keep constant the total time per scan. On-resonance irradiation was set to 0.16 parts per million (ppm), and off-resonance irradiation was set to 66 ppm. Depending on the ligand concentration, 64 to 1,024 scans were acquired for the STD experiments (32 to 512 scans each for on- and off-resonance). Considering the STD-AF to be directly proportional to the fraction of bound receptor gives rise to a hyperbolic dose–response curve (specific one-site binding model) when STD-AF values are measured with different ligand concentrations ([31]). […]

R241A-GCH1 = molecular target: T3, R241A-GCH1 (Homo sapiens, UniProt P30793, R241A); assay: enzyme kinetics, H2NTP formation at 330 nm, R241A-GCH1; assay type: biochemical; conditions: in the absence and presence of GFRP; 0.1 mM BH4
T3 construct: The hGCH1 (42-250, N-terminal 6xHis Tag and TEV cleavage site); 6xHis (N); TEV cleavage site (N); made in house; host or cells: E. coli BL21(DE3)
T3 sequence (P30793 42-250 R241A): T1 sequence (P30793 42-250) with R200A
Experimental: (§3) In order to test the role of the key residues H126, D127, E128, R235, and R241 involved in allosteric inhibitor binding and conformational change, various point mutants were prepared and tested for their ability to be stimulated and inhibited by effector molecules in the presence or absence of GFRP. […] Enzyme activity was evaluated using an activity assay measuring the formation of the product H2NTP at 330 nm with increasing GTP concentrations.
(§4) GTPCH-I specific enzyme activity was determined by spectrometric measuring of the concentration of its direct product H2NTP. Synergy H1 (BioTek Instruments) and Gen5 2.01 software were used to evaluate H2NTP concentration and the maximal turnover rate (Vmax) within each measuring interval. H2NTP concentration was measured at 330 nm over a measuring period of 2 h using a measuring interval of 2 min to 4 min at 37 °C. Samples were prepared using 2 μM GTPCH-I, varying concentrations of GTP (1 μM to 2,000 µM) and in the absence or presence of 15 mM phenylalanine, 0.1 mM BH4, or 3 μM GFRP. The assay buffer used was 50 mM Tris/HCl, pH 7.5, 100 mM KCl. The specific enzyme activity (A) was calculated using the path length of 0.15 cm and the extinction coefficient […] = 6,300 M^−1⋅cm^−1 H2NTP. […] All enzymatic data were, at least, measured in triplicate (n = 3).

GCH1 WT = molecular target: T4, GCH1 WT (Homo sapiens, UniProt P30793); assay: enzyme kinetics, H2NTP formation at 330 nm, WT GCH1; assay type: biochemical; conditions: colorimetric detection of H2NTP
T4 construct: The hGCH1 (42-250, N-terminal 6xHis Tag and TEV cleavage site); 6xHis (N); TEV cleavage site (N); made in house; host or cells: E. coli BL21(DE3)
T4 sequence (P30793 42-250): T1 sequence (P30793 42-250)
Experimental: as §3, §4

GCH1 [3] = molecular target: T1, GCH1; assay: functional assay with 1H-NMR detection of formate; assay type: biochemical
Experimental: For the functional assay, each NMR sample was prepared with 10 μM GCH1 and 170 μM or 600 μM test compound. The PBS NMR buffer additionally contained 300 μM GTP (Cayman Chemical cat. no. 16060). After a reaction time of 45 min (25 °C), a certain amount of substrate molecules (GTP) has been converted by GCH1 into 7,8-Dihydroneopterin (H2NPT) and the by-product formate (deprotonated formic acid). For product detection, a WATERGATE 1H-NMR spectrum was recorded (128 scans). We used the integrated NMR signal of the formate α-proton at 8.33 ppm as a relative enzyme activity readout. The formate integral of a negative control sample (dimethyl sulfoxide) has been set to 100%. An inhibitory active test compound decreases the GTP turnover and leads to a reduced relative formate signal integral (% inhibition). DAHP was used as a positive control.
(§5) Supplemental Figure 6: Detection of product formation and STD NMR assay. A) Enzyme activity assay for GCH1 based on colorimetric detection of H2NTP or 1H-NMR detection of formate. […]
(§6) inhibitor (e.g. BH4). B) STD NMR is capable to detect GTP binding (green). Addition of another active site binder (8-oxo […]
STD NMR enhancement of substrate GTP in the presence of allosteric regulator BH4 (red). This screening assay allows for the identification of allosteric binders. […]

R235A-GCH1 = molecular target: T5, R235A-GCH1 (Homo sapiens, UniProt P30793, R235A); assay: enzyme kinetics, H2NTP formation at 330 nm, R235A-GCH1; assay type: biochemical; conditions: in the absence and presence of GFRP; 0.1 mM BH4
T5 construct: The hGCH1 (42-250, N-terminal 6xHis Tag and TEV cleavage site); 6xHis (N); TEV cleavage site (N); made in house; host or cells: E. coli BL21(DE3)
T5 sequence (P30793 42-250 R235A): T1 sequence (P30793 42-250) with R194A
Experimental: as §3, §4

GCH1 [4] = molecular target: T1, GCH1; assay: STD NMR assay with active site reporter ligand GTP; assay type: binding; conditions: in the presence of allosteric regulator
From the text: as §5, §6
STD NMR enhancement of substrate GTP in the presence of allosteric regulator BH4 (red). This screening assay allows for the identification of allosteric binders. C) Correlation of activity in functional NMR assay and STD NMR enhancement of active site reporter ligand GTP.
(1 picture or pasted object on this page, not shown here)

inhibition of enzyme activity by BH4 (R241A-GCH1)	H2NTP production in presence of inhibitor (GCH1 WT)	formate production in presence of inhibitor (GCH1 [3])	inhibition of enzyme activity by BH4 (R235A-GCH1)	effect on STD NMR signal of substrate GTP (allosteric regulator) (GCH1 [4])	SMILES	Kd (GCH1 [1]) [µM]	Kd (GCH1 F122A mutant) [µM]	increase of maximum STD amplification (Amax), factor (GCH1 [2]; BH4-inhibited GCH1 compared to the uninhibited enzyme)	factor of tighter binding to the allosterically inhibited GCH1 (GCH1 [2]; BH4-inhibited vs uninhibited GCH1)	Kd (GCH1 [2]; KD (STD-NMR, initial slopes), proton H1', 5mM BH4) [µM]	Kd (GCH1 [2]; KD (STD-NMR, initial slopes), proton H1', no BH4) [µM]	Kd (GCH1 [2]; KD (STD-NMR, initial slopes), proton H7, 5mM BH4) [µM]	Kd (GCH1 [2]; KD (STD-NMR, initial slopes), proton H7, no BH4) [µM]	Kd (GCH1 [2]; KD, BH4-bound inhibited hGCH1) [µM]	Kd (GCH1 [2]; KD, free, active hGCH1) [µM]
–	–	–	–	–	Nc1nc2c(ccn2C2OC(COP(=O)(O)OP(=O)(O)OP(=O)(O)O)C(O)C2O)c(=O)[nH]1 (stereo not drawn) [7-deaza-GTP]	798	669	about 3	~6	52	326	157	977	~100	~600
cannot be inhibited	No H2NTP or formate is produced	No H2NTP or formate is produced	cannot be inhibited	enhancement	C[C@H](O)[C@H](O)[C@H]1CNc2nc(N)[nH]c(=O)c2N1 [BH4, tetrahydrobiopterin]	–	–	–	–	–	–	–	–	–	–

— paper PMC7750480, “A hybrid approach reveals the allosteric regulation of GTP cyclohydrolase I” (Proceedings of the National Academy of Sciences of the …, 2020)
